US12285407B2, “Bis-indolylmethane derivatives and uses thereof” (The University of The West Indies, priority 2018, dated 2025)

Experiments:
[1] = system: Bacillus cereus; test: Checkerboard synergy (FICI) of antibiotics with SP-BIM; format: cell-based; conditions: for MIC antibiotic only: antibiotic alone
[2] = system: Klebsiella pneumoniae; test: Adjuvant broth microdilution (antibiotic MIC with SP-BIM at 50 μg/mL); format: cell-based; conditions: Klebsiella pneumoniae; antibiotic alone; Table 7
[3] = system: Klebsiella pneumoniae; test: Checkerboard synergy (FICI) of antibiotics with SP-BIM; format: cell-based; conditions: for MIC antibiotic only: antibiotic alone
[4] = system: Staphylococcus aureus; test: as above; format: cell-based; conditions: Staphylococcus aureus; for MIC antibiotic only: antibiotic alone
[5] = system: Streptococcus pneumoniae; test: Adjuvant broth microdilution (antibiotic MIC with SP-BIM at 50 μg/mL); format: cell-based; conditions: Streptococcus pneumonia; antibiotic alone; Table 5
[6] = system: Candida albicans; test: Checkerboard synergy (FICI) of antibiotics with SP-BIM; set-up: MIC SP-BIM 13 only / MIC in combination: Antibiotic / MIC antibiotic only: unit not given beside the values
[7] = system: MRSA; test: Adjuvant broth microdilution (antibiotic MIC with SP-BIM at 50 μg/mL); format: cell-based, Staphylococcus aureus; conditions: antibiotic alone, Table 4
[8] = system: Streptococcus pneumoniae; test: Checkerboard synergy (FICI) of antibiotics with SP-BIM; format: cell-based; conditions: for MIC antibiotic only: antibiotic alone
[9] = system: Enterococcus faecium; test: as above; format: cell-based; conditions: Enterococcus faecium; for MIC antibiotic only: antibiotic alone
[10] = system: Escherichia coli; test: microbe, parasite or virus in culture; format: cell-based; conditions: antibiotic alone, Table 6
[11] = system: Escherichia coli; test: Checkerboard synergy (FICI) of antibiotics with SP-BIM; set-up: MIC SP-BIM 13 only / MIC in combination: Antibiotic: unit not given beside the values; conditions: for MIC antibiotic only: antibiotic alone
[12] = system: Enterococcus faecalis; test: Adjuvant broth microdilution (antibiotic MIC with SP-BIM at 50 μg/mL); format: cell-based; conditions: antibiotic alone
[13] = system: Escherichia coli O157:H7; test: Rescue concentrations of SP-BIM that reactivate antibiotic; format: cell-based
[14] = system: clinical strains of MRSA; test: Kirby Bauer disc diffusion susceptibility profile; format: cell-based, Staphylococcus aureus; conditions: for Zone of clearance: 35° C., 24 hours, average n=3; for Interpretive standard (resistant/susceptible): zones vs EUCAST breakpoints (Table 30)
[15] = SP-BIM 13 concentration in combination with the labelled antibiotic
[16] = SP-BIM 13 in combination with the labelled antibiotic
[17] = antibiotic in combination with SP-BIM 13
[18] = SP-BIM 9 concentration in combination with the labelled antibiotic
[19] = SP-BIM 9 in combination with the labelled antibiotic
[20] = antibiotic in combination with SP-BIM 9
[21] = MIC of the antibiotic in combination with SP-BIM 13
[22] = Streptococcus pneumonia (title: Streptococcus pyogenes), antibiotic + SP-BIM 9
[23] = Streptococcus pneumoniae, antibiotic + SP-BIM 13

`CC1=C(C(=O)O)N2C(=O)[C@@H](NC(=O)[C@H](N)c3ccccc3)[C@H]2SC1` [Cephalexin, cefalexin] was tested, and the “MIC in combination, SP-BIM 13” value [1, 15] was 32 µg/mL, the “FIC of SP-BIM 13” value [1, 16] was 0.1 and the Interpretation ([1]; antibiotic + SP-BIM 13) was “Synergy (Synergy: FICI≤0.5)”. The “Σ FIC” value ([1]; antibiotic + SP-BIM 13) was less than 0.1, the MIC antibiotic only ([1]; SP-BIM 9 checkerboard) was greater than 250 µg/mL and the MIC antibiotic only ([1]; SP-BIM 13 checkerboard) was 250 µg/mL. The “MIC in combination, Antibiotic” value [1, 17] was 4 µg/mL, the FIC of antibiotic ([1]; in combination with SP-BIM 13) was 0.02 and the “MIC of antibiotic, No Compound” value [2] was 8 µg/mL. For the same molecule, the “MIC in combination, SP-BIM 9” value [3, 18] was 125 µg/mL, the “FIC of SP-BIM 9” value [3, 19] was 0.5 and the “MIC in combination, SP-BIM 13” value [3, 15] was 63 µg/mL. The “FIC of SP-BIM 13” value [3, 16] was 0.3, the Interpretation ([3]; antibiotic + SP-BIM 9) was “Synergy (Synergy: FICI≤0.5)” and the “Σ FIC” value ([3]; antibiotic + SP-BIM 9) was less than 0.5. For the same molecule, the Interpretation ([3]; antibiotic + SP-BIM 13) was “Synergy (Synergy: FICI≤0.5)”, the “Σ FIC” value ([3]; antibiotic + SP-BIM 13) was less than 0.5 and the MIC antibiotic only ([3]; SP-BIM 9 checkerboard) was 250 µg/mL. The MIC antibiotic only ([3]; SP-BIM 13 checkerboard) was 250 µg/mL, the “MIC in combination, Antibiotic” value [3, 20] was 4 µg/mL and the “MIC in combination, Antibiotic” value [3, 17] was 63 µg/mL. The FIC of antibiotic ([3]; in combination with SP-BIM 9) was 0.016, the FIC of antibiotic ([3]; in combination with SP-BIM 13) was 0.3 and the “MIC in combination, SP-BIM 9” value [4, 18] was 16.0 µg/mL. The “FIC of SP-BIM 9” value [4, 19] was 0.06, the “MIC in combination, SP-BIM 13” value [4, 15] was 63 µg/mL and the “FIC of SP-BIM 13” value [4, 16] was 0.5. The Interpretation ([4]; antibiotic + SP-BIM 9) was “Synergy (Synergy: FICI≤0.5)”, the “Σ FIC” value ([4]; antibiotic + SP-BIM 9) was less than 0.19 and the Interpretation ([4]; antibiotic + SP-BIM 13) was “Additive (Additive: FICI>0.5-1.0)”. For the same molecule, the “Σ FIC” value ([4]; antibiotic + SP-BIM 13) was 0.6, the MIC antibiotic only ([4]; SP-BIM 9 checkerboard) was 4 µg/mL and the MIC antibiotic only ([4]; SP-BIM 13 checkerboard) was 4 µg/mL. For the same molecule, the “MIC in combination, Antibiotic” value [4, 20] was 0.5 µg/mL, the “MIC in combination, Antibiotic” value [4, 17] was 0.5 µg/mL and the FIC of antibiotic ([4]; in combination with SP-BIM 9) was 0.13. For the same molecule, the FIC of antibiotic ([4]; in combination with SP-BIM 13) was 0.1, the “MIC of antibiotic, No Compound” value [5] was 250 µg/mL and the “MIC in combination: Antibiotic” value [6, 21] was 63. For the same molecule, the “FIC of SP-BIM 13” value [6, 16] was 0.5, the Interpretation ([6]; antibiotic + SP-BIM 13) was “Additive (Additive: FICI>0.5-1.0)” and the “Σ FIC” value ([6]; antibiotic + SP-BIM 13) was less than 0.8. The MIC antibiotic only ([6]; antibiotic alone) was greater than 250, the FIC of antibiotic ([6]; combination with SP-BIM 13) was 0.3 and the “MIC of antibiotic, No Compound” value [7] was 16 µg/mL. The “MIC in combination, SP-BIM 9” value ([8]; Streptococcus pneumonia (title: Streptococcus pyogenes), SP-BIM 9 concentration in combination with the labelled antibiotic) was 125 µg/mL, the “FIC of SP-BIM 9” value ([8]; Streptococcus pneumonia (title: Streptococcus pyogenes), SP-BIM 9 in combination with the labelled antibiotic) was 0.50 and the Interpretation [8, 22] was “Additive (Additive: FICI>0.5-1.0)”. The “Σ FIC” value [8, 22] was less than 0.63, the MIC antibiotic only ([8]; Streptococcus pneumonia (title: Streptococcus pyogenes), SP-BIM 9 checkerboard) was 250 µg/mL and the “MIC in combination, Antibiotic” value ([8]; Streptococcus pneumonia (title: Streptococcus pyogenes), antibiotic in combination with SP-BIM 9) was 32 µg/mL. The FIC of antibiotic ([8]; Streptococcus pneumonia (title: Streptococcus pyogenes), in combination with SP-BIM 9) was 0.13, the “MIC in combination, SP-BIM 13” value ([8]; Streptococcus pneumoniae, SP-BIM 13 concentration in combination with the labelled antibiotic) was 63 µg/mL and the “FIC of SP-BIM 13” value ([8]; Streptococcus pneumoniae, SP-BIM 13 in combination with the labelled antibiotic) was 0.3. For the same molecule, the Interpretation [8, 23] was “Synergy (Synergy: FICI≤0.5)”, the “Σ FIC” value [8, 23] was less than 0.3 and the MIC antibiotic only ([8]; Streptococcus pneumoniae, SP-BIM 13 checkerboard) was 250 µg/mL. The “MIC in combination, Antibiotic” value ([8]; Streptococcus pneumoniae, antibiotic in combination with SP-BIM 13) was 2 µg/mL, the FIC of antibiotic ([8]; Streptococcus pneumoniae, in combination with SP-BIM 13) was 0.0 and the “MIC in combination, SP-BIM 13” value [9, 15] was 63 µg/mL. The “FIC of SP-BIM 13” value [9, 16] was 0.5, the Interpretation ([9]; antibiotic + SP-BIM 13) was “Synergy (Synergy: FICI≤0.5)” and the “Σ FIC” value ([9]; antibiotic + SP-BIM 13) was 0.5. The MIC antibiotic only ([9]; SP-BIM 9 checkerboard) was 250 µg/mL, the MIC antibiotic only ([9]; SP-BIM 13 checkerboard) was 250 µg/mL and the “MIC in combination, Antibiotic” value [9, 17] was 8 µg/mL. The FIC of antibiotic ([9]; in combination with SP-BIM 13) was 0.0, the “MIC of antibiotic, No Compound” value [10] was greater than 250 µg/mL and the “MIC in combination: Antibiotic” value [11, 21] was 125. The “MIC in combination, SP-BIM 9” value [11, 18] was 125 µg/mL, the “FIC of SP-BIM 9” value [11, 19] was 0.5 and the “FIC of SP-BIM 13” value [11, 16] was 0.3. For the same molecule, the Interpretation ([11]; antibiotic + SP-BIM 9) was “Synergy (Synergy: FICI≤0.5)”, the “Σ FIC” value ([11]; antibiotic + SP-BIM 9) was less than 0.6 and the Interpretation ([11]; antibiotic + SP-BIM 13) was “Additive (Additive: FICI>0.5-1.0)”. For the same molecule, the “Σ FIC” value ([11]; antibiotic + SP-BIM 13) was less than 0.8, the MIC antibiotic only [11] was greater than 250 and the MIC antibiotic only ([11]; SP-BIM 9 checkerboard) was 250 µg/mL. For the same molecule, the “MIC in combination, Antibiotic” value [11, 20] was 16 µg/mL, the FIC of antibiotic ([11]; combination with SP-BIM 13) was 0.5 and the FIC of antibiotic ([11]; in combination with SP-BIM 9) was 0.064.
With `NC[C@H]1O[C@H](O[C@H]2[C@H](O)[C@@H](O[C@H]3O[C@H](CO)[C@@H](O)[C@H](N)[C@H]3O)[C@H](N)C[C@@H]2N)[C@H](O)[C@@H](O)[C@@H]1O` [Kanamycin, kanamycin] the “MIC of antibiotic, No Compound” value [12] was 250 µg/mL, the “MIC of Kanamycin in combination with 32 μg/mL SP-BIM 28” value ([13]; E. coli O157:H7, with 32 μg/mL SP-BIM 28) was 1 µg/mL and the MIC ([13]; Escherichia coli, read-out: MIC of Kanamycin) was 8 µg/mL. The Zone of clearance ([14]; MRSA strain 1594) was 11.5 mm, the “Interpretive standard (resistant/susceptible)” value ([14]; MRSA strain 1594) was “R” and the Zone of clearance ([14]; MRSA strain 1621) was 19.5 mm. For the same molecule, the “Interpretive standard (resistant/susceptible)” value ([14]; MRSA strain 1621) was “S”, the Zone of clearance ([14]; MRSA strain 5455) was 19.5 mm and the “Interpretive standard (resistant/susceptible)” value ([14]; MRSA strain 5455) was “S”. For the same molecule, the Zone of clearance ([14]; MRSA strain 5872) was 0.0 mm, the “Interpretive standard (resistant/susceptible)” value ([14]; MRSA strain 5872) was “R” and the Zone of clearance ([14]; MRSA strain 7153) was 19.5 mm. For the same molecule, the “Interpretive standard (resistant/susceptible)” value ([14]; MRSA strain 7153) was “S”, the Zone of clearance ([14]; MRSA strain 7172) was 20.5 mm and the “Interpretive standard (resistant/susceptible)” value ([14]; MRSA strain 7172) was “S”. The Zone of clearance ([14]; MRSA strain 7698) was 8.5 mm, the “Interpretive standard (resistant/susceptible)” value ([14]; MRSA strain 7698) was “R” and the Zone of clearance ([14]; MRSA strain 10132) was 8.0 mm. For the same molecule, the “Interpretive standard (resistant/susceptible)” value ([14]; MRSA strain 10132) was “R”.
